Experimental data as given in patent US8557837B2, “Sinomenine derivatives, synthetic methods and uses thereof” (Shanghai Institute of Organic Chemistry, Chinese Academy of …, priority 2010, dated 2013).
“Also recorded” adds a separate entry of the source.

Experiments:
TNF-α [1] = assay: In vitro inhibition of TNF-α (LPS-stimulated J774 macrophages, ELISA of supernatant); assay type: cell-based; details: mice macrophage cell line J774, 1 μg/mL LPS, compound 10 μM, 5 hours
Description: The horizontal axis indicates the compound numbers corresponding to the examples, and the vertical axis indicates the inhibition rate (IR) of TNF-α. The concentration used in the assays is 10 μM.
In vitro inhibition of TNF-α: inoculate 48 well plates with mice macrophase cell line J774, at 1×10^5 cells/well. Incubate in DMEM containing 10% FBS under 6% CO2 for 12 hours. Use DMEM medium containing 1 μg/mL LPS to dilute the small molecule compounds to a final concentration of 10^−5 mol/L and use that to replace the original culture medium. The incubation is continued for another 5 hours. Collect the supernatants and determine TNF-α using ELISA. In this experiment, compound SB 202190 (4-(4-fluorophenyl)-2-(4-hydroxyphenyl)-5-(4-pyridyl)-1H-imidazole, CAS 152121-30-7, was purchased from Sigma. This compound is a specific inhibitor of p38 MAPK. Through inhibition of p38 phosphorylation, it inhibits the production of TNF-α) is used as a positive control.

TNF-α [2] = assay: LPS-induced endotoxin shock model, plasma TNF-alpha by ELISA; assay type: in vivo; details: male C57BL/6 mice, 25, 50, 100 mg/Kg injected peritoneally 1 hour before LPS 2.5 mg/Kg; blood 1.5 hours after LPS
Source text: The horizontal axis indicates the compound numbers corresponding to the examples or the amount of Compound 1 used in mg/Kg of mouse body weight. The vertical axis indicates the concentrations of TNF-α.
Materials: C57BL/6 mice (6-8 week old) are purchased from Shanghai Laboratory Animal Center (SLAC). Animals are kept, with sufficient water and standard diets, in the Laboratory Animal Center (clean room) in the Institute of Biochemistry and Cell Biology at the Shanghai Institute for Biological Sciences, Chinese Academy of Sciences.
Lipopolysaccharides (LPS) was purchased from Sigma (St. Louis, Mo.) was dissolved in sterile physiological saline and aliquots are stored at −70° C. (The LPS used in the cell testing has a catalog No. L4391, and used in animal testing has a catalog No. L3129.)
Cytokine (TNF-alpha) ELISA test kit (Catalog No. MTA00) was purchased from R&D Co.
Steps: (1) 6-8 week old male C57BL/6 mice are randomly grouped in 5 mice per group for use in endotoxin model tests;
(2) weigh each mouse, and inject peritoneally 200 μL different concentrations of small molecule Compound 1 in physiological saline (the injection doses for the low, medium, and high groups are respectively 25 mg/Kg, 50 mg/Kg, and 100 mg/Kg body weight). The control group was injected with 200 μL physiological saline; […]

COC1=C[C@@H]2[C@@H]3[C@H](Sc4ccc(C)cc4)c4ccc(O)c(O)c4[C@]2(CCN3C)CC1=O [Compound 1]
inhibition rate (IR) of TNF-α / anti-inflammatory activity (FIG. 1) (TNF-α [1]): apparent activities
melting point: 224 to 225 °C (dec.)
effect on pro-inflammatory cytokine TNF-α level in plasma (FIG. 3) (TNF-α [2]): substantial inhibitory effect; also recorded: dose dependent

COC1=CC2[C@@H]3[C@H](Sc4ccccc4)c4ccc(O)c(O)c4[C@]2(CCN3C)CC1=O (stereo partly drawn) [Compound 4]
inhibition rate (IR) of TNF-α / anti-inflammatory activity (FIG. 1) (TNF-α [1]): apparent activities
melting point: 210 to 212 °C (dec.)

COC1=CC2[C@@H]3[C@H](Sc4ccc(C(C)(C)C)cc4)c4ccc(O)c(O)c4[C@]2(CCN3C)CC1=O (stereo partly drawn) [Compound 8]
inhibition rate (IR) of TNF-α / anti-inflammatory activity (FIG. 1) (TNF-α [1]): apparent activities
melting point: 232 to 233 °C (dec.)

COC1=CC2[C@@H]3[C@H](OC(C)=O)c4ccc(OC(C)=O)c(OC(C)=O)c4[C@]2(CCN3C)CC1=O (stereo partly drawn) [Compound 31]
inhibition rate (IR) of TNF-α / anti-inflammatory activity (FIG. 1) (TNF-α [1]): apparent activities
melting point: 198 to 199 °C

COC1=CC2[C@@H]3[C@H](OC)c4ccc(OC)c(O)c4[C@]2(CCN3C)CC1=O (stereo partly drawn) [Compound 33, 10β-methoxysinomenine]
inhibition rate (IR) of TNF-α / anti-inflammatory activity (FIG. 1) (TNF-α [1]; 10 µM): TNF-α stimulating effects; also recorded: TNF-α stimulatory activities
melting point: 201 to 203 °C (dec.)

COC1=CC2[C@@H]3[C@H](OC(C)=O)c4c(CO)cc(OC)c(O)c4[C@]2(CCN3C)CC1=O (stereo partly drawn) [Compound 34, 1-hydroxymethyl-10β-acetoxysinomenine]
inhibition rate (IR) of TNF-α / anti-inflammatory activity (FIG. 1) (TNF-α [1]; 10 µM): TNF-α stimulating effects; also recorded: TNF-α stimulatory activities

COC1=CC2[C@@H]3[C@H](OC)c4c(CO)cc(OC)c(O)c4[C@]2(CCN3C)CC1=O (stereo partly drawn) [Compound 35, 1-hydroxymethyl-10β-methoxysinomenine]
inhibition rate (IR) of TNF-α / anti-inflammatory activity (FIG. 1) (TNF-α [1]; 10 µM): TNF-α stimulating effects; also recorded: TNF-α stimulatory activities

COC1=CC2[C@@H]3C(=O)c4ccc(OC)c(OC(C)=O)c4[C@]2(CCN3C)C[C@@H]1O (stereo partly drawn) [Compound 39]
inhibition rate (IR) of TNF-α / anti-inflammatory activity (FIG. 1) (TNF-α [1]): apparent activities

COC1=CC2[C@@H]3C(=O)c4ccc(OC)c(OC(C)=O)c4[C@]2(CCN3C)C[C@H]1O (stereo partly drawn) [Compound 40]
inhibition rate (IR) of TNF-α / anti-inflammatory activity (FIG. 1) (TNF-α [1]): apparent activities
